Measurements reported in publication PMC6530537, “Efficient development of stable and highly functionalised peptides targeting the CK2α/CK2β protein–protein interaction” (Chemical Science, 2019).
Changes are numbered by the printed parent chain.

Tests used:
[1] = target: T1, CK2α (Homo sapiens, UniProt P68400, K74A/K75A/K76A/R21S); experiment: Isothermal titration calorimetry, direct binding to CK2α; conditions: for Kd: ITC, 25°C, CK2α_KA, Tris 200 mM, NaCl 300 mM, 10% DMSO, single site binding model
T1 construct: CK2α_KA (residues 2 -329) contained four; His6 (N, cleaved yes); made in house; host or cells: Escherichia coli BL21(DE3)
T1 sequence (P68400 2-329 R21S/K74A/K75A/K76A): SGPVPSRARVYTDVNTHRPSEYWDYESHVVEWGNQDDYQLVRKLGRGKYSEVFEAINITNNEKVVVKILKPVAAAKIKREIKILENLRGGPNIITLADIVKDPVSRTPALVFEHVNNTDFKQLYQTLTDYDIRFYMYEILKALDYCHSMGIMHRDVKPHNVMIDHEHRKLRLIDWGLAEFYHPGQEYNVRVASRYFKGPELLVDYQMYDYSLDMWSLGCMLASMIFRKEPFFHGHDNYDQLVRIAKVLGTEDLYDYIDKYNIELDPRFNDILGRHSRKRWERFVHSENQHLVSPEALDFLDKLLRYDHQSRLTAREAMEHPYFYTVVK
Method: lysed using a high-pressure homogeniser.
The soluble supernatant was applied on a […]
mM NaCl, 1mM DTT, 1mM EDTA, pH 8.5). 100µL of the precision protease was loaded onto the […]
Pure protein was concentrated to 15 mg/mL and flash frozen in liquid N2. […]
1.4.3. Isothermal Calorimetry Titration
1.4.3.1. Direct binding assay
DMSO) and concentrated to 20-50 μM. Compounds in 100× stock solutions were diluted into the […]
Control titrations were performed, and the […]

[2] = tested on: HCT116 cells; experiment: cells; type: cell-based, human; conditions: 24 h
Method: (§1) page 47: 1.5. Biological experimental 1.5.1. […] The experiment was performed in duplicates. 1.5.2. […] 1.5.3. […] 46

[3] = tested on: U2OS cells; experiment: cells; type: cell-based, human; conditions: 24 h
Method: as §1

[4] = tested on: U2OS cells; experiment: Cell viability / apoptosis assay (CytoTox-Glo), 4 hour treatment; type: cell-based, human; conditions: after 4 hours
[5] = tested on: CK2β localisation in U2OS cells; experiment: Immunofluorescence imaging of subcellular localisation of CK2β; type: cell-based, human; conditions: 30 μM, 15 minute incubation, CK2β antibody
Method: (§2) CellCarrier Ultra) in 40 μL of growth medium.
(§3) 1.5.5. Co-localisation experiments […]
(§4) confocal microscope with a 40X water immersion objective. Images were acquired with excitation at […]
(§5) green, red and blue channel respectively.
(§6) The following primary antibodies were used:
(§7) Antibody Organelle stained Supplier and catalogue Working concentration […]
(§8) Calnexin Endoplasmic reticulum Invitrogen, PA5-34665 1:750
(§9) Hoechst nuclei stain was used to a working concentration of 1:5000. […]
(§10) concentration 4%). Cells were fixed for 15 minutes, washed with PBS (3x) and blocked with 3% BSA + 0.1 % […] for 5 minutes. The blocking solution was then removed and 40 μL of the primary antibodies in BSA added. The plate was stored in the dark, at 4 °C overnight. The primary antibodies were washed with PBS (3x) and 40 μL of the secondary antibodies and Hoechst nuclei stain in BSA added. The plate was kept at 4 °C for 1 hour, washed with PBS (3x) and imaged as described above. Images were analysed using Fiji (ImageJ) software.

[6] = target: T2, CK2α/CK2β interaction (Homo sapiens, UniProt P68400); experiment: ITC competition assay: CK2β binding to CK2α alone and in the presence of peptide; conditions: 25°C, 100 μM peptide, preliminary assay
T2 construct: CK2α_WT was used (residues 2-329); His6 (N, cleaved yes); made in house; host or cells: Escherichia coli BL21(DE3)
T2 sequence (P68400 2-329): T1 sequence (P68400 2-329 R21S/K74A/K75A/K76A) with S20R, A73K, A74K, A75K
Method: (§11) We then wanted to investigate whether the peptides would be able to inhibit the binding of the β subunit to the α subunit. To this end, the binding affinity of the regulatory β subunit for the catalytic domain was determined via ITC (Kd 9 nM). This was then repeated in the presence of 100 μM P1-C4 and P2-C4 (ESI, Table S4 ^†). […] As one of the key roles of CK2β is to recruit substrates to the kinase, the effect of PPI inhibition on substrate phosphorylation was studied using CK2β dependent and independent substrates. […] It should be noted that the kinase assay was performed using the pre-formed CK2α/β complex as the ability of CK2α to phosphorylate eIF2β requires the presence of the CK2β subunit.
1.4.3.2. Competition assay […]
concentrated to 4-6 μM. CK2β (9.3 mg/mL, 20 mM Tris pH 8.5, 500 mM NaCl) was diluted in Tris buffer (200 mM, NaCl, 300 mM, 10% DMSO) and concentrated to 40 μM. In a typical experiment, […]
performed at 150 second intervals. The syringe was loaded with CK2β and rotated at 750 rpm. The same experiment was repeated in the presence of the peptide s: compounds at 1 mM in DMSO were added to the solutions of CK2α and CK2β (prepared as described above) to a final concentration of […]
binding model using Origin software. […]
(CK2β-RAD) 200s, baseline 120s (assay buffer), control loading 200s (RAD), baseline 150s (assay buffer), ligand binding (association) 400s (CK2α K74A and CAM7117) and ligand dissociation 600s (assay buffer), followed by regeneration and next cycles. […]
GraphPad. The results are the average of 4 repeats and error shown as SEM.
Figure S10- Sensorgrams of the BLI competition experiments to assess the ability of P2-C4 to […] the CK2α/CK2β-RAD complex. a) Concentration of peptide ranging from 10 to 0.025 μM and 0 μM. b) Concentration of peptide ranging from 10 to 5 nM and 0 nM.
(1 picture or pasted object on this page, not shown here)

[7] = target: T3, CK2α/CK2β-RAD complex (Homo sapiens, UniProt P68400, K74A/K75A/K76A/R21S); experiment: Competition Bio-Layer Interferometry (BLI): formation of the CK2α/CK2β-RAD complex; type: binding; conditions: biotin-labelled CK2β-RAD 50 nM on streptavidin sensors, CK2α 50 nM, 20mM TRIS pH 8.0, 350mM NaCl, 0.5% Tween, average of 4 repeats, SEM, read-out: IC50, prevention of formation of the CK2α/CK2β-RAD complex
T3 construct: CK2α_KA (residues 2 -329) contained four; His6 (N, cleaved yes); made in house; host or cells: Escherichia coli BL21(DE3)
T3 sequence (P68400 2-329 R21S/K74A/K75A/K76A): T1 sequence (P68400 2-329 R21S/K74A/K75A/K76A)
Method: Octet RED96 (ForteBio) instrument was used for BLI analysis of biotin-labelled CK2β-RAD/CAM7117 interactions. Experiments were performed using SA-Streptavidin biosensors (ForteBio), which were regenerated with 10mM glycine, pH 1.7. 20mM TRIS pH 8.0, 350mM NaCl, 0.5% Tween was used as the assay buffer. For binding assays pre-wet sensors were loaded with biotin labelled CK2β-RAD protein at 50 nM in assay buffer. CK2α K74A was prepared at 50 nM in assay buffer and dilution series (from 0 to 10 μM) of CAM7117 were prepared in the assay buffer. The following experimental setup was used for each measurement cycle: regeneration 3× 5s, baseline 120s, sample loading (CK2β-RAD) 200s, baseline 120s (assay buffer), control loading 200s (RAD), baseline 150s (assay buffer), ligand binding (association) 400s (CK2α K74A and CAM7117) and ligand dissociation 600s (assay buffer), followed by regeneration and next cycles. During the control loading stage all […]
Regenerated SA-Streptavidin biosensors loaded with biotin labelled RAD were used to perform referencing. Data was processed using ForteBio Analysis 7.1 software and IC50 was calculated using GraphPad. The results are the average of 4 repeats and error shown as SEM. […]

[8] = target: T4, CK2α/β holoenzyme (Homo sapiens, UniProt P68400); experiment: ADP-Glo kinase assay, CK2β-dependent substrate eIF2β, pre-formed CK2α/β complex; type: biochemical; conditions: 50 nM CK2α_WT + 50 nM CK2β_WT pre-formed, 25 μM ATP, 50 μM eIF2β peptide, 25 °C, 120 min, at least three independent repeats, read-out: IC50, inhibition of phosphorylation of the CK2β-dependent substrate eIF2β
T4 construct: CK2α_WT was used (residues 2-329); His6 (N, cleaved yes); made in house; host or cells: Escherichia coli BL21(DE3)
T4 sequence (P68400 2-329): T1 sequence (P68400 2-329 R21S/K74A/K75A/K76A) with S20R, A73K, A74K, A75K
Method: as §11
(§12) The kinase assays were performed using the ADP-Glo™ kinase assay kit (Promega). 50 nM CK2α_WT was incubated in the kinase reaction buffer (40 mM Tris pH 7.5, 200 mM NaCl, 20 mM MgCl2, 0.1 mg/mL BSA, 25 μM ATP, 50 μM substrate peptide (RRRADDSDDDD, Enzo Life Sciences […]
(§13) Inc. or eIF2β peptide […]), 5% (v/v) DMSO) in the presence of different concentrations of the inhibitor at 25 °C for 120 min. […] The luminescence was recorded using a PHERAstar FS plate reader (BMG LABTECH) with an integration time of 1 sec.
(§14) Percentage inhibition was calculated relative to a DMSO control after subtraction of the measurement for basal ATPase activity in the absence of substrate. […]

[9] = target: T5, CK2α (Homo sapiens, UniProt P68400); experiment: ADP-Glo kinase assay, β-independent substrate peptide RRRADDSDDDD; type: biochemical; conditions: 50 nM CK2α_WT, 25 μM ATP, 50 μM substrate, 25 °C, 120 min
T5 construct: CK2α_WT was used (residues 2-329); His6 (N, cleaved yes); made in house; host or cells: Escherichia coli BL21(DE3)
T5 sequence (P68400 2-329): T1 sequence (P68400 2-329 R21S/K74A/K75A/K76A) with S20R, A73K, A74K, A75K
Method: as §11, §12, §13, §14

[10] = tested on: U2OS and HCT116 cells; conditions: proliferation, growth rate, viability (Fig. S5-S7)
Method: All cell lines used were supplied by AstraZeneca cell bank as mycoplasma free. U2OS bone
osteosarcoma and HCT116 colon carcinoma cells were maintained in RPMI -1640 (1x, Sigma Aldrich,
R0883) supplemented with 2 mM L-glutamine (Gibco, 25030-149) and fetal bovine serum (FBS, Gibco
Life Technologies, 10270-106) at a final concentration of 10%, hereafter known as growth medium. All
cells were grown at 37°C/5% CO2 in a humidified environment and all the assays were performed
using these culturing conditions.
HCT116 cells were seeded at 2000 cells per well into two flat-bottomed 384-well plates (PerkinElmer
CellCarrier Ultra) in 40 μL of growth medium. After 24 hours, the peptides dissolved in DMSO (10 mM)
were added to the cells (to final concentrations of 100, 75, 50, 32, 25, 16, 10, 7.7, 5, 3.2, 0 μM) using
HP Tecan dispenser and DMSO normalised to a final concentration of 1% (v/v). Cells were then
incubated in the presence of the compounds for 4 days and the rate of growth monitored with
IncuCyte Zoom (plate day 4). […]
inhibition was calculated relative to DMSO controls, normalised against day 0 and GI50 values were
calculated using Graphpad Prism. […]
minutes at room temperature, luminescence was read on a multimode plate reader (EnVision, […]
dead cells was measured. […]
calculated by subtracting the luminescent signal resulting from experimental cell death from total
luminescence death. […]

[11] = tested on: U2OS cells; type: cell-based, human
Method: as §2, §3, §4, §5, §6, §7, §8, §9, §10

CC(=O)NCC(=O)N[C@H]1Cn2cc(nn2)-c2cc(C(=O)NCCCCCC(=O)NCCCCCC(=O)N[C@H](CCCNC(=N)N)C(=O)N[C@H](CCCNC(=N)N)C(=O)N[C@H](CCCNC(=N)N)C(N)=O)cc(c2)-c2cn(nn2)C[C@@H](C(=O)NCC(=O)NCC(N)=O)NC(=O)[C@H](Cc2c[nH]cn2)NC(=O)[C@H](Cc2c[nH]c3ccccc23)NC(=O)[C@H](CCCCN)NC(=O)[C@H](Cc2ccccc2)NC(=O)CNC(=O)[C@H](Cc2ccc(O)cc2)NC(=O)[C@H](CC(C)C)NC(=O)[C@H](CCCNC(=N)N)NC1=O [CAM7117]
Kd [1]: 200 nM
GI50 [2]: 76000 ± 4000 nM
GI50 [3]: 32000 ± 2000 nM
Induction of apoptosis [4]: induced apoptosis
Nuclear localisation of CK2β after treatment [5]: little or no fluorescence associated with the CK2β antibody was found in the nucleus

CC(=O)NCC(=O)N[C@H]1Cn2cc(nn2)-c2cc(C(=O)O)cc(c2)-c2cn(nn2)C[C@@H](C(=O)NCC(=O)NCC(N)=O)NC(=O)[C@H](Cc2c[nH]cn2)NC(=O)[C@H](Cc2c[nH]c3ccccc23)NC(=O)[C@H](CCCCN)NC(=O)[C@H](Cc2ccccc2)NC(=O)CNC(=O)[C@H](Cc2ccc(O)cc2)NC(=O)[C@H](CC(C)C)NC(=O)[C@H](CCCNC(=N)N)NC1=O [P2-C4]
Improvement in Kd of the constrained peptide compared to the linear variant P2 ([1]; ITC Kd, P2-C4 vs P2): 300 fold
Kd [1]: 150 nM
Binding of CK2β to CK2α in the presence of peptide [6]: no binding of CK2β to CK2α was detected
IC50 [7]: 150 ± 19 nM
IC50 [8]: 206 ± 29 nM
Effect on phosphorylation of a β-independent substrate peptide (RRRADDSDDDD) [9]: did not affect the phosphorylation

C#Cc1cc(C#C)cc(C(=O)NCCCCCC(=O)NCCCCCC(=O)N[C@H](CCCNC(=N)N)C(=O)N[C@H](CCCNC(=N)N)C(=O)N[C@H](CCCNC(=N)N)C(N)=O)c1 [F1C4]
Biological effects in cancer cells [10]: No biological effects

GXF2C4RLYGFKWHXF2C4GG (sidechain bridge or staple) [P2-F2C4, FITC-labelled analogue of CAM7117]
Cellular uptake / cell permeability [11]: successfully internalised
